Data reported in patent publication US20120202272A1, “LIGE-TYPE SYSTEMS FOR BIOCONVERSION OF LIGNIN-DERIVED COMPOUNDS” (priority 2010, published 2012).

Columns and labels:
Escherichia coli = details: stated as demonstrated; cited from earlier work
[1] = in vitro biochemical assay for beta-etherase activity on fluorescent substrate MUAV (4MU formation, clarified E. coli cell extracts)
Source text: The model substrate synthesis 150 for use in the biochemical screening for selective activity can be outsourced through a contract research organization (CRO). The enzyme discovery effort can initially be focused on identifying potential beta-etherase candidate genes identified through bioinformatic methods. […] The fluorescent substrate α-O-(β-methylumbelliferyl)acetovanillone (MUAV), for example, can be used in in vitro assays to identify beta-etherase function (Acme Biosciences, Mt. View, Calif.). The formation of 4 methylumbelliferone (4MU) upon hydrolysis of the aryl ether bond can be monitored by fluorescence, for example, at λex=365 nm and λem=450 nm (or 460 nm).
The enzyme screening 155 is done to identify novel etherases 160. […] Expression of the beta-etherase genes can be done in 5 ml or 25 ml samples of the recombinant E. coli strains in LB medium using induction with IPTG. Following induction, and cell harvest, cell pellets can be lysed using the BPER (Invitrogen) cell lysis system. […] The formation of 4 methylumbelliferone (4MU) upon hydrolysis of the aryl ether bond in MUAV can be monitored by fluorescence at λex=365 nm and λem=460 nm, and can provide quantitative measurement of beta-etherase function. Cell extracts of E. coli transformed with the S. paucimobilis ligE and ligF genes can be the assay positive controls. Test or unknown samples can include, for example, E. coli strains expressing putative beta-etherase genes from N. aromaticovorans.
This example describes a method for gene expression in E. coli, as well as beta-etherase biochemical assays. Expression of known and putative beta-etherase genes was performed using 5 ml cultures of the recombinant E. coli strains described herein in Luria Broth medium by induction of gene expression using isopropylthiogalactoside (IPTG) to a final concentration of 0.1 mM. Following induction, and cell harvest, the cells were disrupted using either sonication or the BPER (Invitrogen) cell lysis system.
In vitro reactions were performed in a total volume of 200 ul and contained: 25 mM TrisHCl pH 7.5; 0.5 mM dithiothreitol; 1 mM glutathione; 0.05 mM or 0.1 mM MUAV; 10 ul of clarified cell extract used to initiate the reactions. Following incubation for 2.5 hours at room temperature, a 50 ul sample of the reactions was terminated using 150 uL of 300 mM glycine/NaOH buffer pH 9. The formation of 4 methylumbelliferone (4MU) upon hydrolysis of the aryl ether bond was monitored by the increase in fluorescence at λex=360 nm and λem=450 nm using a Spectramax UV/visible/fluorescent spectrophotometer.
The total protein concentrations of the cell lysates were determined using the BCA reagent system for protein quantification (Pierce).
Induction might be also performed using IPTG concentrations in the range of 0.01-1 mM. Cell disruption might be also performed using toluene permeabilization, French pressure techniques, or using multiple freeze/thaw cycles in conjunction with lysozyme. Assay conditions might be varied to include TrisHCl at 10-150 mM concentrations and in the pH range of 6.5-8.5; 0-2 mM dithiothreitol; 0.05-2 mM glutathione; 0.01-5 mM MUAV substrate; 22-42° C. reaction temperatures. The biochemical assay might be performed as a fixed time point assay with reaction times ranging from 5 minutes-12 hours, or performed continuously without quenching with glycine/NaOH buffer to extract enzyme kinetic parameters.

[2] = MUAV substrate, concentration not given
[3] = reactions containing 0.1 mM MUAV substrate, E. coli cell extracts

Molecule: O=Cc1ccc(O)c(O)c1O [2,3,4-trihydroxybenzaldehyde]
- antibacterial activity against Escherichia coli (Escherichia coli): antibacterial activity

Molecule: O=Cc1cccc(O)c1O [2,3-dihydroxybenzaldehyde]
- antibacterial activity against Escherichia coli (Escherichia coli): antibacterial activity

Molecule: O=Cc1c(O)cc(O)cc1O [2,4,6-trihydroxybenzaldehyde]
- antibacterial activity against Escherichia coli (Escherichia coli): antibacterial activity

Molecule: O=Cc1ccc(O)cc1O [2,4-dihydroxybenzaldehyde]
- antibacterial activity against Escherichia coli (Escherichia coli): antibacterial activity

Molecule: O=Cc1cc(O)ccc1O [2,5-dihydroxybenzaldehyde]
- antibacterial activity against Escherichia coli (Escherichia coli): antibacterial activity

Molecule: COc1cccc(C=O)c1O [2-hydroxy-3-methoxybenzaldehyde]
- antibacterial activity against Escherichia coli (Escherichia coli): antibacterial activity

Molecule: COc1ccc(O)c(C=O)c1 [2-hydroxy-5-methoxybenzaldehyde]
- antibacterial activity against Escherichia coli (Escherichia coli): antibacterial activity

Molecule: O=Cc1ccccc1O [2-hydroxybenzaldehyde]
- antibacterial activity against Escherichia coli (Escherichia coli): antibacterial activity

Molecule: COc1cc(O)cc(OC)c1C=O [4-hydroxy-2,6-dimethoxybenzaldehyde]
- antibacterial activity against Escherichia coli (Escherichia coli): antibacterial activity

B1: LigF2: N. aromaticivorans beta-etherase polypeptide, glutathione S-transferase-like protein, GenBank ABD27301.1 (protein)
chain: MALKYYHAEPLANSLKSMVPLKEKGLAYESIYVDLHKFEQHQPWFTAINPEGQVPVLDHDGTIITHTTVINEYLEDAFPDAQPADAPLRPRDPVGAARMRYWNKFIDEHVMNYVSMHGWHRMVGVIARNIASGDFEKLLESIPLPDQRKKWATARSGFSEADLANATAKIEYALDKVEKQLGETKWLAGDTYTLADINFYSHCGAMVERMFPEMEVARRAPRLCEWRDRVAARPAVAEALKSEDRTAPGLRVWSGEVR
- efficiency relative to S. paucimobilis LigF protein ([1]; MUAV substrate): approximately 2 fold
- total activity (beta-etherase) [1, 2]: 1206 rfu/ug

B2: LigF: S. paucimobilis LigF beta-etherase, positive control polypeptide (protein)
chain: MTLKLYSFGPGANSLKPLATLYEKGLEFEQVFVDPSKFEQHSDWFKKINPRGQVPALWHDGKVVTESTVICEYLEDVFPESGNSLRPADPFKRAEMRVWTKWVDEYFCWCVSTIGWAFGIKAIAQKMSDEEFEEHINKNVPIPEQQLKWRRARNGFPQEMLDEEFRKVGVSVARLEETLSKQDYLVDTGYSLADICNFAIANGLQRPGGFFGDYVNQEKTPGLCAWLDRINARPAIKEMFEKSKREDLLKRQNEKVA
- total activity (beta-etherase) [1, 2]: 558 rfu/ug

B3: ligE: S. paucimobilis ligE beta-etherase, positive control polypeptide (protein)
chain: MARNNTITLYDLQLESGCTISPYVWRTKYALKHKGFDIDIVPGGFTGILERTGGRSERVPVIVDDGEWVLDSWVIAEYLDEKYPDRPMLFEGPTQKNLMKFLDNWLWSTAVGPWFRCYILDYHDLSLPQDRDYVRWSREQWFLGGQRLEDVQAGREDRLPLVPPTLEPFRRILAETKWLGGDQPNFADYSALAVFLWTASVARTPPLTEDDPLRDWLDRGFDLFDGLGRHPGMNPLFGLKLREGDPEPFVRQTGPAGAGGQALNKGPQTTKMPPRVAEKAD
- total activity (beta-etherase) [1, 3]: 7 rfu/ug

B4: ligE1: N. aromaticivorans beta-etherase polypeptide, glutathione S-transferase-like protein, GenBank ABD26841.1 (protein)
chain: MAANNTITFYDLALSTGATISPFVWATKYALKHKGFDLDVVPGGFTGILERTGGKTERLPAIVDDGEFVLDSWGIVEYLDAKYPDRPVLIPHESVAATLKALDNWFWNAAVGPWMFCFCQDYRDLSLPQDHEYVTHSREKMLGRKLEEVQAGREERLPKISAALEPLRAALAQHQWLGGSSPNYADYRIMGGILFTASVCKTPVLANDDPLRDWIERCLDLYGGLGRHPGLFPLFGLEQREGDPDLFNRAAGQGGIYKRNTGPESTRAETQRITEGMKK
- beta-etherase activity (in words) ([1]; MUAV substrate): beta-etherase activity
- efficiency relative to S. paucimobilis ligE beta-etherase enzyme ([1]; MUAV substrate): approximately 75 fold
- total activity (beta-etherase) [1, 3]: 529 rfu/ug
